Test [1] concerns the target T1, Vitamin D3 receptor (Homo sapiens) (UniProt P11473).
T1 sequence (whole entry): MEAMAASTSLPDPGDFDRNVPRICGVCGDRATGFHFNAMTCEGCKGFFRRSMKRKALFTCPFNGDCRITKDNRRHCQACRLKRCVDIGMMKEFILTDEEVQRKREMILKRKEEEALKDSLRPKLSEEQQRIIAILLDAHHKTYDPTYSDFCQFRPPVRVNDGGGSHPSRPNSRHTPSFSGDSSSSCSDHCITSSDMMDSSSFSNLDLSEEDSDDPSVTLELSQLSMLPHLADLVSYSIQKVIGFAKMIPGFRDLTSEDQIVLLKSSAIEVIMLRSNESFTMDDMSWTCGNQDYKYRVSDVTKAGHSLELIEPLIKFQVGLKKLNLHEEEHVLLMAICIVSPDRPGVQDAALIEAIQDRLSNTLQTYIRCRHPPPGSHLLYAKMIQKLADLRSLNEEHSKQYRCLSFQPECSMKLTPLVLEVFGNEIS
In words: Binding affinity against Vitamin D3 receptor with reference to compound 1.

The target in test [2] is T1, Vitamin D3 receptor (Homo sapiens). In words: Binding affinity for Vitamin D3 receptor compared to compound 1; value ranges from 5-10.
Test [3] has the same target. Description: Binding affinity against Vitamin D3 receptor with reference to compound 1; value ranges from 2-5.
For test [4] the target is unchanged. In words: Binding affinity against Vitamin D3 receptor with reference to compound 1; value ranges from 15-30.

Data on 9 compounds can be found in ChEMBL document CHEMBL1149112, “Predicting the cell differentiation activity of 1 alpha,25-dihydroxyvitamin D3 side chain analogues from docking simulations” (J Med Chem, 2004).

In test [1], `C=C1/C(=C/C=C2/CCC[C@]3(C)[C@@H]([C@@H](C)CCCC(O)(CC)CC)CC[C@@H]23)C[C@@H](O)C[C@@H]1O` displayed an A/Ad of 100.
Still for that read-out and setting: then `C=C1/C(=C/C=C2/CCC[C@]3(C)[C@@H](C(C)COCC(C)(C)O)CC[C@@H]23)C[C@@H](O)C[C@@H]1O` (some centres undefined), with 0.2.
Consider `C=C1/C(=C/C=C2/CCC[C@]3(C)C(C(C)OCCC(C)(C)O)CC[C@@H]23)C[C@@H](O)C[C@@H]1O` (single isomer, unassigned), for which the A/Ad in test [2] turned out to be 10.
Take `C=C1/C(=C/C=C2/CCC[C@]3(C)[C@@H]([C@@H](C)OCCCC(O)(CC)CC)CC[C@@H]23)C[C@@H](O)C[C@@H]1O`: the A/Ad in test [1] turned out to be 200000.
Same read-out and setting: as for `C=C1/C(=C/C=C2/CCC[C@]3(C)[C@@H]([C@@H](C)CCCCC(O)(CC)CC)CC[C@@H]23)C[C@@H](O)C[C@@H]1O`, the figure is 200.
Compound `C=C1/C(=C/C=C2/CCC[C@]3(C)[C@@H]([C@H](C)CCCC(O)(CC)CC)CC[C@@H]23)C[C@@H](O)C[C@@H]1O` gave an A/Ad in test [3] of 5.
In test [1], `C=C1/C(=C/C=C2/CCC[C@]3(C)C([C@H](C)OCCCC(O)(CC)CC)CC[C@@H]23)C[C@@H](O)C[C@@H]1O` (single isomer, unassigned) showed an A/Ad of 20.
Regarding `C=C1/C(=C/C=C2/CCC[C@]3(C)[C@@H](C(C)OCCC(O)(CC)CC)CC[C@@H]23)C[C@@H](O)C[C@@H]1O` (some centres undefined), in test [4], the A/Ad is 30.
As to `C=C1/C(=C/C=C2/CCC[C@@]3(C)[C@H]2CC[C@H]3[C@@H](C)CCCCC(O)(CC)CC)C[C@@H](O)C[C@@H]1O`, the A/Ad in test [1] came to 5.
